Read-outs that look alike come from different tables or passages of the source.
Key:
[1] = test system: ZIKV-RLuc (Cambodian strain FSS13025); assay: microbe, parasite or virus in culture; assay type: cell-based, Zika virus; conditions: for AC50: Zika virus, Vero
[2] = test system: wild-type ZIKV (Ugandan MR766 strain) in Vero cells; assay: ZIKV cytopathic effect (CPE) inhibition qHTS assay, CellTiter-Glo readout; assay type: cell-based, Zika virus
[3] = test system: caspase-3 activity induced by ZIKV in Vero cells; assay: cells; assay type: cell-based; conditions: read-out: Caspase 3 (ZIKV Antiviral Assays), IC50
[4] = test system: ZIKV-mCherry (Cambodian strain FSS13025); assay: microbe, parasite or virus in culture; assay type: cell-based, Zika virus
[5] = read-out: Log AC50 (M) (converted)

Compound | CC-v2 (curve class classification v2 of the dose response curve) [1] | Efficacy (difference between neutral response and maximum compound response) [1] | Max Resp (difference between neutral response and compound response for highest compound concentration) [1] | AC50 [1] [M] | AC50 [1, 5] [M] | AC50 (Vero cells) [µM] | Log AC50 (M) (Vero cells) | other results
CC1=C(CO)C(=O)O[C@@H]([C@@H](C)[C@H]2CC[C@H]3[C@@H]4C[C@H]5O[C@]56[C@@H](O)C=CC(=O)[C@]6(C)[C@H]4CC[C@]23C)C1 [NCGC00180796-02] | -2.1 | -108.248 | -100.116 | 1.02e-05 | 1.02e-05 | 10.2 | -4.9908 | Curve class [2]: -3; Efficacy [2]: -63.347; AC50 ([2]; Zika virus, Vero): 35.5 µM; AC50 ([2]; Zika virus, Vero, read-out: Log AC50 (converted)): 35.5 µM; Emax ([2]; Zika virus, Vero, read-out: Max response): -65.4%
O=C1NC2CCCCN2C12CCN(CCCN1c3ccccc3CCc3ccc(Cl)cc31)CC2 (centres unmarked) [NCGC00183853-01] | -2.1 | -99.983 | -99.289 | 2.61e-05 | 2.61e-05 | 26.1 | -4.5827 | AC50 ([2]; Zika virus, Vero, from Hill fit of the response curve, 50% of maximum activity response, 194 cherry-picked compounds, protocol name not given, read-out: AC50): 65.1 µM; AC50 ([2]; Zika virus, Vero, potency in log units (Molar) from Hill fit of the response curve, 194 cherry-picked compounds, protocol name not given, read-out: Log AC50 (converted)): 65.1 µM; CC-v2 (curve class classification of the dose response curve) ([2]; curve class v2 (Inglese et al. 2006)): -3; Efficacy ([2]; difference between neutral response and maximum compound response): -47.567
C=C1[C@@H](O)[C@]2(O)OC[C@]34C2[C@]2(C)C(C[C@H]3OC(=O)[C@H](O)[C@@]14O)C(C)=CC(=O)[C@H]2O (some centres unmarked) [NCGC00347491-02] | -2.2 | -33.078 | -33.995 | 7.23e-06 | 7.23e-06 | 7.23 | -5.1408 | –
CC(C)C(=O)O[C@H]1[C@@H]2[C@H](C)C(=O)O[C@@H]2C[C@@H](C)[C@@H]2C=CC(=O)[C@]21C [NCGC00347562-02] | -3 | -106.49 | -96.985 | 2.28e-05 | 2.28e-05 | 22.8 | -4.6425 | –
C=C(C)C1Cc2c(cc(O)c3c2OC2COc4cc(OC)c(OC)cc4C2(O)C3=O)O1 (centres unmarked) [NCGC00347649-02] | -1.1 | -91.85 | -97.372 | 9.28e-08 | 9.27e-08 | 0.0927 | – | –
COC(=O)C1(Cc2ccc(O)c(CC=C(C)C)c2)OC(=O)C(OC)=C1c1cc(O)c(O)c(CC=C(C)C)c1 (centres unmarked) [NCGC00347732-02] | -1.1 | -101.002 | -99.456 | 9.28e-06 | 9.27e-06 | 9.28 | -5.0327 | –
CC(C)=CCCC(C)(O)CCCC(C)(O)CCCC(C)(O)CCCC(C)(O)CCCC(C)(O)CCCC(C)(O)C(O)CC/C(C)=C/CC/C(C)=C/CO[C@@H]1O[C@H](CO)[C@@H](O)[C@H](O)[C@H]1O (some centres unmarked) [NCGC00347748-02] | -1.1 | -100.94 | -99.117 | 3.62e-06 | 3.62e-06 | 3.62 | -5.4408 | –
CC(=O)OC1C=C(CO)C(=O)C(OC(=O)CC(C)C)C1C(C)C (centres unmarked) [NCGC00347760-02] | -3 | -123.001 | -99.998 | 3.69e-05 | 3.69e-05 | 36.9 | -4.4327 | –
CC(C)(C)OC(=O)N[C@@H](Cc1ccc(O[S+](=O)([O-])c2cccc3cnccc23)cc1)C(=O)N1CCCN(C(=O)OC(C)(C)C)CC1 [NCGC00348020-01] | -3 | -104.596 | -83.301 | 3.69e-05 | 3.69e-05 | 36.9 | -4.4327 | –
CC1OC(OC2C(OC3C(OC4CCC5(C)C(CCC6(C)C5CC=C5C7CC(C)(C)CCC7(C(=O)O)C(O)CC56C)C4(C)C)OC(C(=O)O)C(O)C3O)OC(CO)C(OC3OCC(O)C(OC4OC(CO)C(O)C4O)C3O)C2OC2OC(C)C(O)C(O)C2O)C(O)C(O)C1O (centres unmarked) [NCGC00380107-01] | -2.1 | -79.638 | -81.884 | 1.28e-05 | 1.28e-05 | 12.8 | -4.894 | –
C[C@@H]1O[C@@H](O[C@H]2[C@H](OC(=O)[C@]34CCC(C)(C)C[C@H]3C3=CCC5[C@@]6(C)C[C@H](O)[C@H](O[C@@H]7O[C@H](C(=O)O)[C@@H](O)[C@H](O)[C@H]7O)[C@@](C)(CO)C6[C@H](O)C[C@@]5(C)[C@]3(C)CC4)OC[C@H](O)[C@@H]2O)[C@H](O)[C@H](O)[C@H]1O[C@@H]1OC[C@@H](O)[C@H](O[C@@H]2OC[C@](O)(CO)[C@H]2O)[C@H]1O (some centres unmarked) [NCGC00380219-01] | -2.1 | -96.8 | -99.643 | 1.16e-05 | 1.16e-05 | 11.6 | -4.9345 | –
COC1C(O)C(OC2CCC3(C)C(CCC4C3CCC3(C)C(C5=CC(=O)OC5)CCC43O)C2)OC(C)C1OC1OC(COC2OC(CO)C(O)C(O)C2O)C(O)C(O)C1O (centres unmarked) [NCGC00380220-01] | -1.1 | -95.552 | -99.662 | 1.29e-06 | 1.29e-06 | 1.29 | -5.8908 | –
CC(=O)O[C@@H]1[C@@H](O)[C@H]2O[C@@H]3C=C(C)[C@@H](O)C[C@]3(CO)[C@]1(C)[C@]21CO1 [NCGC00380400-01, NT-2 toxin] | – | – | – | – | – | – | – | IC50 ([1]; read-out: Rluc-ZIKV (ZIKV Antiviral Assays), IC50): 0.64 µM; IC50 [3]: 2.29 µM; CC-v2 (curve class of the dose response curve) [4]: -1.2; Efficacy (difference between neutral response and maximum compound response) [4]: -59.911; Log AC50 (M) [4]: -7.0328 M; Max Resp (difference between neutral response and response at highest compound concentration) [4]: -100.305; AC50 ([4]; read-out: AC50): 0.0927 µM; CC-v2 (curve class classification of the dose response curve) [2]: -1.2; Efficacy [2]: -41.676; Log AC50 (M) [2]: -5.594 M; Max Resp [2]: 6.747; AC50 ([2]; read-out: AC50): 2.55 µM; IC50 ([2]; read-out: ZIKV-infection (CPE, ZIKV Antiviral Assays), IC50): 2.55 µM
CC1CCCC(SCC(O)C(=O)O)CC(=O)c2c(O)cc(O)cc2CC(=O)O1 (centres unmarked) [NCGC00380419-01] | -3 | -93.408 | -77.007 | 1.82e-05 | 1.82e-05 | 18.2 | -4.7408 | –
C/C(=C\CO)CC/C=C(\C)CCC(O)C(C)(O)CCCC(C)(O)CCCC(C)(O)CCCC(C)(O)CCCC(C)(O)CCCC(C)(O)CCCC(C)(C)O (centres unmarked) [NCGC00381040-01] | -1.1 | -92.604 | -99.402 | 1.44e-06 | 1.44e-06 | 1.44 | -5.8408 | –
COc1ccc2c(c1)CN(C(=O)CCN1CCC(Cc3ccccc3)CC1)CCS2 [NCGC00384450-01] | -3 | -97.233 | -83.243 | 3.69e-05 | 3.69e-05 | 36.9 | -4.4327 | –
C=C(C)[C@H]1CCC(C)=C[C@@H]1c1c(O)cc(CCCCC)cc1O [NCGC00385066-01] | -3 | -124.845 | -99.067 | 3.69e-05 | 3.69e-05 | 36.9 | -4.4327 | –
Oc1cc(O)cc(CCCCC/C=C\CCCCCCCc2cc(O)cc(O)c2)c1 [NCGC00385180-01] | -3 | -110.94 | -89.374 | 3.69e-05 | 3.69e-05 | – | -4.4327 | –
COc1ccc(-c2oc3cc(O)c(OC)c(O)c3c(=O)c2OC)cc1O [NCGC00385612-01] | -1.2 | -71.455 | -72.562 | 1.17e-06 | 1.17e-06 | 1.17 | -5.9327 | –

— article PMC8765781, “A platform of assays for the discovery of anti-Zika small-molecules with activity in a 3D-bioprinted outer-blood-retina model” (PLoS ONE, 2022)
